Measured values taken from US20100190849A1, “Novel Clerodanes and Methods for Repelling Arthropods” (priority 2006, published 2010).
Marks after values point to notes of the source that are not given here.

Assays:
Aedes aegypti [1] = assay: K & D module mosquito anti-biting (repellent) bioassay; assay type: in vivo
Method: Insects: Ae. aegypti(L.) (red eye Liverpool strain) and An. stephensi Liston used in the study were from colonies maintained at the Walter Reed Army Institute of Research, Silver Spring, Md. […] Adults were maintained in a photoperiod of 12:12 (L:D) h at 27° C. and 80% RH with cotton pads moistened with 10% aqueous sucrose solution. Mated females were 5-15 d old when they were used in bioassays. Ae. aegypti females had access only to water 24 h and neither food nor water for another 24 h before testing. An. stephensi females were provided with water alone 24 h before testing.
Routinely, a six-celled K & D module containing five mosquitoes/cell was positioned over cloth treatments covering the six blood-membrane wells, and trap doors of the K&D modules were opened to expose the treatments to the sets of mosquitoes. After a 3 minute exposure, the number of mosquitoes biting through cloth treatments in each cell was recorded and mosquitoes were prodded back into the cells. […] Experiments were replicated 12, 18, 32, or 56 times. Thus, 60, 90, 160. or 280 mosquitoes were tested against each treatment depending on the experiment, and the proportion of mosquitoes not biting for each treatment was calculated. For each experiment, conducted in different time periods, logistic regression was used to make two sets of one degree-of-freedom contrasts (t-tests): treatments vs. control and treatments vs. SS220 for anti-biting activity within each experiment. The level of significance was set at P=0.05. In all, we conducted 8 biological experiments, and all experiments used Ae. aegypti as the test mosquito with exception of Experiment 7 which used An. stephensi.
Each experiment was replicated 18 times.
Experiments 3, 4, and 5: In each of these experiments, chromatographic fractions of essential oil at their respective percentage compositions of 100 μg essential oil/cm^2 cloth, 100 μg unfractionated essential oil/cm^2 cloth, 25 nmol SS-220/cm^2 cloth and control were compared for mosquito anti-biting activity. Each experiment was replicated 18 times.
(§1) Experiments 6 and 7: These experiments compared the anti-biting activities of SS-220, and plant-isolated callicarpenal, humulene epoxide II, intermedeol and spathulenol at 25 nmol compound/cm^2 cloth versus control against Ae. aegypti and An. stephensi, respectively. Experiment 6 was replicated 32 times and 7 had 56 replicates
The percentage composition of the mixture was a normalized percentage of active components in C. japonica essential oil based upon GC-MS analysis total ion Area % analysis based on largest peaks. Other treatments in the experiment were SS220, callicarpenal, intermedeol, and spathulenol each at 25 nmol/cm^2 cloth versus control.

An. stephensi = settings: in vivo; cited from earlier work
mosquito = settings: 25 nmol SS220/cm^2 cloth; replicated assays; cited from earlier work
Aedes aegypti [2] = assay: Total mosquito toxic knockdown after K & D module exposure (Experiment 8); assay type: in vivo; settings: Exp. 8, 25 nmol/cm^2 cloth; for Total Knock down 6 min: dead mosquitoes 6 min post-treatment exposure; for Total knock down 1 hr: dead mosquitoes 1 hr post-treatment exposure; for Total knock down 24 hr: dead mosquitoes 24 hr post-treatment exposure
From the text: (§2) Plant extracts, fractions, or isolated pure plant derived compounds in 95% ethanol solution were each randomly applied to six-4×5 cm areas of organdy cloth and positioned over the membrane-covered blood. A replicate consisted of six treatments: four test chemicals or extract fractions, 95% ethanol treated cloth as control and unfractionated plant extract or a standard repellent compound, (1S, 2′S)-2-methylpiperidinyl-3-cyclohexen-1-carboxamide (SS220) at 25 nmol/cm^2 cloth. The 25 nmol SS220/cm^2 cloth dose was used as a standard, because it was known from human volunteer and in vitro assays to consistently suppress mosquito biting by 80% or more compared to controls in replicated assays (Klun, J. A., et al., Journal of the American Mosquito Control Association, 21: 64-70 (2005)). […] Routinely, a six-celled K & D module containing five mosquitoes/cell was positioned over cloth treatments covering the six blood-membrane wells, and trap doors of the K&D modules were opened to expose the treatments to the sets of mosquitoes. After a 3 minute exposure, the number of mosquitoes biting through cloth treatments in each cell was recorded and mosquitoes were prodded back into the cells. In Experiment 8, we retained all mosquitoes in their respective K&D module cells, each fitted with a water-moist piece of cotton, and observed the mosquitoes for total mosquito toxic knockdown at 6 min, 1 hr, and 24 hr post-treatment exposure. Experiments were replicated 12, 18, 32, or 56 times. Thus, 60, 90, 160. or 280 mosquitoes were tested against each treatment depending on the experiment, and the proportion of mosquitoes not biting for each treatment was calculated. For each experiment, conducted in different time periods, logistic regression was used to make two sets of one degree-of-freedom contrasts (t-tests): treatments vs. control and treatments vs. SS220 for anti-biting activity within each experiment. The level of significance was set at P=0.05. In all, we conducted 8 biological experiments, and all experiments used Ae. aegypti as the test mosquito with exception of Experiment 7 which used An. stephensi.
Experiment 8: This experiment (12 replicates) compared the antibiting activities of a mixture (25 nmol/cm^2 cloth) of 11.5% callicarpenal, 47.1% intermedeol, and 41.4% spathulenol. The percentage composition of the mixture was a normalized percentage of active components in C. japonica essential oil based upon GC-MS analysis total ion Area % analysis based on largest peaks. Other treatments in the experiment were SS220, callicarpenal, intermedeol, and spathulenol each at 25 nmol/cm^2 cloth versus control. In addition to measurement of anti-biting activity, the number of dead mosquitoes observed at three time intervals were recorded for the six treatments.

Anopheles stephensi = assay: K & D module mosquito anti-biting (repellent) bioassay; assay type: in vivo; settings: 25 nmol compound/cm^2 cloth; for Proportion Not Biting: Exp. 7, 56 replicates; for repellent activity (in words): Experiment 7
From the text: Insects: Ae. aegypti(L.) (red eye Liverpool strain) and An. stephensi Liston used in the study were from colonies maintained at the Walter Reed Army Institute of Research, Silver Spring, Md. The insects were reared by feeding larvae ground tropical fish flakes (Tetramin Tropical Fish Flakes, Tetra Sales, Blacksburg, Va., www.tetra-fish.com)(Gerberg, E. j., et al., Manual for mosquito rearing and experimental techniques. Amer. Mosq. Control Assoc. Bull. No. 5 (revised), 1994, AMCA. inc., Lake Charles, La.). Adults were maintained in a photoperiod of 12:12 (L:D) h at 27° C. and 80% RH with cotton pads moistened with 10% aqueous sucrose solution. Mated females were 5-15 d old when they were used in bioassays. Ae. aegypti females had access only to water 24 h and neither food nor water for another 24 h before testing. An. stephensi females were provided with water alone 24 h before testing.
Mosquito Bioassay Methods: Experiment were conducted by using, a six-celled in vitro Klun & Debboun (K & D) module bioassay system developed by klun et al. (Klum J. A., et al., Journal of the American Mosquito Control Association. 21: 64-70 (2005)) for quantitative, evaluation of mosquito-repellent (anti-biting) properties of candidate repellent compounds for human use.
as §2, §1

Aedes aegypti [3] = settings: in vivo; cited from earlier work
[4] = Table 7, Example 2, synthetic compounds, dose not given
[5] = Exp. 6, 25 nmol compound/cm^2 cloth, 32 replicates
[6] = Exp. 8, 25 nmol/cm^2 cloth, 12 replicates
[7] = Experiment 6, 25 nmol compound/cm^2 cloth
[8] = Table 8, Example 3, synthetic compounds, dose not given

CC1=CCC[C@@H]2[C@@](C)(CCO)[C@H](C)CC[C@@]12C [13,14,15,16-tetranorclerod-3-en-12-ol]
biting deterrent efficacy (in words) (Aedes aegypti [1]; Example 2, Table 7): equivalent to both callicarpenal and picaridin
Proportion Not Biting (Aedes aegypti [1]; [4]): 0.68^b

C[C@H]1CCCCN1C(=O)[C@@H]1CC=CCC1 [SS220, (1S, 2′S)-2-methylpiperidinyl-3-cyclohexen-1-carboxamide, reference compound]
Proportion Not Biting (Aedes aegypti [1]; Exp. 1, 25 nmole/cm^2 cloth, 3 minute exposure): 0.81^c
Proportion Not Biting (Aedes aegypti [1]; Exp. 2, 25 nmole/cm^2 cloth): 0.90^c
Proportion Not Biting (Aedes aegypti [1]; Exp. 3, 25 nmole/cm^2): 1.00^c
Proportion Not Biting (Aedes aegypti [1]; Exp. 4, 25 nmole/cm^2): 0.92^c
Proportion Not Biting (Aedes aegypti [1]; Exp. 5, 25 nmole/cm^2): 0.95^c
Proportion Not Biting (Aedes aegypti [1]; [5]): 0.80^c
Proportion Not Biting (Aedes aegypti [1]; [6]): 0.67^c
repellent activity compared with bench mark repellents (in words) (An. stephensi): equivalent to bench mark repellent compounds Deet and Bayrepel
suppression of mosquito biting compared to controls (mosquito): ≥ 80%
Total Knock down 6 min (Aedes aegypti [2]): 0
Total knock down 1 hr (Aedes aegypti [2]): 1
Total knock down 24 hr (Aedes aegypti [2]): 2
Proportion Not Biting (Anopheles stephensi): 0.78^c
repellent activity compared with bench mark repellents (in words) (Aedes aegypti [3]): more effective than Bayrepel

C/C1=C\CC(C)(C)/C=C/C[C@@]2(C)O[C@@H]2CC1 [humulene epoxide II]
Proportion Not Biting (Aedes aegypti [1]; [5]): 0.48^a
repellent activity (in words) (Aedes aegypti [1]; [7]): no repellent activity
Proportion Not Biting (Anopheles stephensi): 0.58^a
repellent activity (in words) (Anopheles stephensi): not different from the control

CCC(C)OC(=O)N1CCCCC1CCO (stereo not shown) [picaridin, 2-(2-hydroxyethyl)-1piperidinecarboxylic acid 1-methylpropyl ester, reference compound]
Proportion Not Biting (Aedes aegypti [1]; [4]): 0.62^b

C=C1CC[C@@H]2[C@H]([C@H]3[C@H]1CC[C@]3(C)O)C2(C)C [spathulenol, (1R,4S,5R,6R,7R)-aromadendr-10(14)-en-4-ol]
Proportion Not Biting (Aedes aegypti [1]; [5]): 0.73^c
Proportion Not Biting (Aedes aegypti [1]; [6]): 0.48^b
repellent activity (in words) (Aedes aegypti [1]; [7]): equally active
repellent activity (in words) (Aedes aegypti [1]; Experiment 8, 25 nmol/cm^2 cloth): significantly different from the control
Total Knock down 6 min (Aedes aegypti [2]): 1
Total knock down 1 hr (Aedes aegypti [2]): 2
Total knock down 24 hr (Aedes aegypti [2]): 0
Proportion Not Biting (Anopheles stephensi): 0.75^c
repellent activity (in words) (Anopheles stephensi): as effective as SS220

C[C@@H]1CC[C@]2(C)[C@H](CC[C@@H]3O[C@@]32C)[C@@]1(C)CC=O [β-epoxycallicarpenal]
biting deterrent efficacy (in words) (Aedes aegypti [1]; Example 3, Table 8): equivalent to callicarpenal
Proportion Not Biting (Aedes aegypti [1]; [8]): 0.70^b

α-epoxycallicarpenal
biting deterrent efficacy (in words) (Aedes aegypti [1]; Example 3, Table 8): equivalent to callicarpenal
Proportion Not Biting (Aedes aegypti [1]; [8]): 0.68^b
